One block for each compound: values may come before it. Calls of active or inactive are those of the source. No cut-off for these calls is given here.
Experiments:
MCF7 [1] = test: Induction of apoptosis in human MCF7 cells assessed as late apoptotic cells at 3 uM measured after 48 hrs by Annexin-V-FITC/propidium iodide staining based flow cytometric method (reference value: 0%); type: functional
HCT-116 [2] = test: Cell cycle arrest human HCT116 cells assessed as increase in accumulation at G2/M phase at 0.1 uM after 48 hrs by propidium iodide/RNase staining based FACS analysis; type: functional
HCT-116 [3] = test: Induction of apoptosis in human HCT116 cells assessed as late apoptotic cells at 0.1 uM measured after 48 hrs by Annexin-V-FITC/propidium iodide staining based flow cytometric method (reference value: 0%); type: functional
HCT-116 [4] = test: Cell cycle arrest human HCT116 cells assessed as decrease in accumulation at G1 phase at 0.1 uM after 48 hrs by propidium iodide/RNase staining based FACS analysis; type: functional
HCT-116 [5] = test: Cell cycle arrest human HCT116 cells assessed as increase in accumulation at subG0/G1 phase at 0.1 uM after 48 hrs by propidium iodide/RNase staining based FACS analysis; type: functional
MCF7 [6] = test: Induction of apoptosis in human MCF7 cells assessed as necrotic cells at 3 uM measured after 48 hrs by Annexin-V-FITC/propidium iodide staining based flow cytometric method (reference value: 0%); type: functional
HCT-116 [7] = test: Cell cycle arrest human HCT116 cells assessed as decrease in accumulation at S phase at 0.1 uM after 48 hrs by propidium iodide/RNase staining based FACS analysis; type: functional
HCT-116 [8] = test: Induction of apoptosis in human HCT116 cells assessed as necrotic cells at 0.1 uM measured after 48 hrs by Annexin-V-FITC/propidium iodide staining based flow cytometric method (reference value: 0%); type: functional
MCF7 [9] = test: Cell cycle arrest in human MCF7 cells assessed as increase in accumulation at subG0/G1 phase at 3 uM after 48 hrs by propidium iodide/RNase staining based FACS analysis; type: functional
MCF7 [10] = test: Induction of apoptosis in human MCF7 cells assessed as viable cells at 3 uM measured after 48 hrs by Annexin-V-FITC/propidium iodide staining based flow cytometric method (reference value: 99.9%); type: functional; settings: MCF7, 48 h, read-out: Activity
MCF7 [11] = test: Cell cycle arrest in human MCF7 cells assessed as decrease in accumulation at G1 phase at 3 uM after 48 hrs by propidium iodide/RNase staining based FACS analysis; type: functional
MCF7 [12] = test: Cell cycle arrest in human MCF7 cells assessed as decrease in accumulation at S phase at 3 uM after 48 hrs by propidium iodide/RNase staining based FACS analysis; type: functional
HCT-116 [13] = test: Induction of apoptosis in human HCT116 cells assessed as viable cells at 0.1 uM measured after 48 hrs by Annexin-V-FITC/propidium iodide staining based flow cytometric method (reference value: 99.6%); type: functional; settings: HCT-116, 48 h, read-out: Activity
Caco-2 = test: Cytotoxicity against human Caco2 cells assessed as reduction in cell viability at 1 to 10 uM after 72 hrs by MTT assay; type: cell-based; settings: caco-2, 72 h
Sus scrofa [14] = species: Sus scrofa; test: Inhibition of porcine brain tubulin polymerization at 25 uM measured every 20 secs for 60 mins
HCT-116 [15] = test: Antiproliferative activity against human HCT116 cells after 72 hrs by MTT assay; type: functional, cell-based; settings: HCT-116, 72 h
MCF7 [16] = test: Antiproliferative activity against human MCF7 cells after 72 hrs by MTT assay; type: functional, cell-based; settings: MCF7, 72 h
MCF7 [17] = test: Cell cycle arrest in human MCF7 cells assessed as increase in accumulation at G2/M phase at 3 uM after 48 hrs by propidium iodide/RNase staining based FACS analysis; type: functional
HCT-116 [18] = test: Induction of apoptosis in human HCT116 cells assessed as early apoptotic cells at 0.1 uM measured after 48 hrs by Annexin-V-FITC/propidium iodide staining based flow cytometric method (reference value: 0.4%); type: functional
MCF7 [19] = test: Induction of apoptosis in human MCF7 cells assessed as early apoptotic cells at 3 uM measured after 48 hrs by Annexin-V-FITC/propidium iodide staining based flow cytometric method (reference value: 0.1%); type: functional
HCT-116 [20] = test: Induction of apoptosis in human HCT116 cells assessed as late apoptotic cells at 0.3 uM measured after 48 hrs by Annexin-V-FITC/propidium iodide staining based flow cytometric method (reference value: 0%); type: functional
MCF7 [21] = test: Induction of apoptosis in human MCF7 cells assessed as necrotic cells at 2 uM measured after 48 hrs by Annexin-V-FITC/propidium iodide staining based flow cytometric method (reference value: 0%); type: functional
MCF7 [22] = test: Induction of apoptosis in human MCF7 cells assessed as viable cells at 2 uM measured after 48 hrs by Annexin-V-FITC/propidium iodide staining based flow cytometric method (reference value: 99.9%); type: functional; settings: MCF7, 48 h, read-out: Activity
HCT-116 [23] = test: Induction of apoptosis in human HCT116 cells assessed as viable cells at 0.3 uM measured after 48 hrs by Annexin-V-FITC/propidium iodide staining based flow cytometric method (reference value: 99.6%); type: functional; settings: HCT-116, 48 h, read-out: Activity
MCF7 [24] = test: Cell cycle arrest in human MCF7 cells assessed as decrease in accumulation at S phase at 2 uM after 48 hrs by propidium iodide/RNase staining based FACS analysis; type: functional
MCF7 [25] = test: Cell cycle arrest in human MCF7 cells assessed as increase in accumulation at subG0/G1 phase at 2 uM after 48 hrs by propidium iodide/RNase staining based FACS analysis; type: functional
HCT-116 [26] = test: Cell cycle arrest human HCT116 cells assessed as decrease in accumulation at G1 phase at 0.3 uM after 48 hrs by propidium iodide/RNase staining based FACS analysis; type: functional
HCT-116 [27] = test: Cell cycle arrest human HCT116 cells assessed as increase in accumulation at G2/M phase at 0.3 uM after 48 hrs by propidium iodide/RNase staining based FACS analysis; type: functional
MCF7 [28] = test: Induction of apoptosis in human MCF7 cells assessed as early apoptotic cells at 2 uM measured after 48 hrs by Annexin-V-FITC/propidium iodide staining based flow cytometric method (reference value: 0.1%); type: functional
MCF7 [29] = test: Cell cycle arrest in human MCF7 cells assessed as increase in accumulation at G2/M phase at 2 uM after 48 hrs by propidium iodide/RNase staining based FACS analysis; type: functional
MCF7 [30] = test: Induction of apoptosis in human MCF7 cells assessed as late apoptotic cells at 2 uM measured after 48 hrs by Annexin-V-FITC/propidium iodide staining based flow cytometric method (reference value: 0%); type: functional
HCT-116 [31] = test: Cell cycle arrest human HCT116 cells assessed as increase in accumulation at subG0/G1 phase at 0.3 uM after 48 hrs by propidium iodide/RNase staining based FACS analysis; type: functional
HCT-116 [32] = test: Induction of apoptosis in human HCT116 cells assessed as necrotic cells at 0.3 uM measured after 48 hrs by Annexin-V-FITC/propidium iodide staining based flow cytometric method (reference value: 0%); type: functional
HCT-116 [33] = test: Induction of apoptosis in human HCT116 cells assessed as early apoptotic cells at 0.3 uM measured after 48 hrs by Annexin-V-FITC/propidium iodide staining based flow cytometric method (reference value: 0.4%); type: functional
HCT-116 [34] = test: Cell cycle arrest human HCT116 cells assessed as decrease in accumulation at S phase at 0.3 uM after 48 hrs by propidium iodide/RNase staining based FACS analysis; type: functional
MCF7 [35] = test: Cell cycle arrest in human MCF7 cells assessed as decrease in accumulation at G1 phase at 2 uM after 48 hrs by propidium iodide/RNase staining based FACS analysis; type: functional
HCT-116 [36] = test: Induction of apoptosis in human HCT116 cells assessed as early apoptotic cells at 0.2 uM measured after 48 hrs by Annexin-V-FITC/propidium iodide staining based flow cytometric method (reference value: 0.4%); type: functional
HCT-116 [37] = test: Cell cycle arrest human HCT116 cells assessed as decrease in accumulation at S phase at 0.2 uM after 48 hrs by propidium iodide/RNase staining based FACS analysis; type: functional
HCT-116 [38] = test: Induction of apoptosis in human HCT116 cells assessed as viable cells at 0.2 uM measured after 48 hrs by Annexin-V-FITC/propidium iodide staining based flow cytometric method (reference value: 99.6%); type: functional; settings: HCT-116, 48 h, read-out: Activity
HCT-116 [39] = test: Induction of apoptosis in human HCT116 cells assessed as late apoptotic cells at 0.2 uM measured after 48 hrs by Annexin-V-FITC/propidium iodide staining based flow cytometric method (reference value: 0%); type: functional
HCT-116 [40] = test: Cell cycle arrest human HCT116 cells assessed as decrease in accumulation at G1 phase at 0.2 uM after 48 hrs by propidium iodide/RNase staining based FACS analysis; type: functional
HCT-116 [41] = test: Induction of apoptosis in human HCT116 cells assessed as necrotic cells at 0.2 uM measured after 48 hrs by Annexin-V-FITC/propidium iodide staining based flow cytometric method (reference value: 0%); type: functional
HCT-116 [42] = test: Cell cycle arrest human HCT116 cells assessed as increase in accumulation at subG0/G1 phase at 0.2 uM after 48 hrs by propidium iodide/RNase staining based FACS analysis; type: functional
HCT-116 [43] = test: Cell cycle arrest human HCT116 cells assessed as increase in accumulation at G2/M phase at 0.2 uM after 48 hrs by propidium iodide/RNase staining based FACS analysis; type: functional
[44] = Inhibition of sheep brain tubulin polymerization incubated at 37 degreeC for 10 mins followed by incubated at 0 degreeC for 5 mins; parameters: species or system Ovis aries
Sus scrofa [45] = species: Sus scrofa; test: Induction of porcine brain tubulin polymerization at 10 uM measured every 20 secs for 60 mins

- GI50 (HCT-116 [15]): 4.25 µM
- GI50 (MCF7 [16]): 20.7 µM
Compound: O=C(N/N=C1/c2ncccc2-n2cccc21)c1ccccc1

- IC50 (HCT-116 [15]): 1.66 µM
- IC50 (MCF7 [16]): 15.6 µM
Compound: O=C(N/N=C1/c2cc(Br)cnc2-n2cccc21)c1ccc(O)cc1
- Activity (Caco-2): Non-Toxic

- IC50 (HCT-116 [15]): 2.54 µM
- IC50 (MCF7 [16]): 16.1 µM
Compound: O=C(N/N=C1/c2cccnc2-n2cccc21)c1ccc(O)cc1
- Activity (Caco-2): Non-Toxic

- IC50 [44]: 2.9 µM
Compound: COc1ccc(-c2csc3c2-n2cccc2C3=O)cc1O

Continued, compound first:

Compound: O=C(N/N=C1/c2cc(Br)cnc2-n2cccc21)c1ccncc1
- Activity (MCF7 [1]): 0%
- Activity (HCT-116 [2]): Active
- Activity (HCT-116 [3]): 0%
- Activity (HCT-116 [4]): Active
- Activity (HCT-116 [5]): Active
- Activity (MCF7 [6]): 0%
- Activity (HCT-116 [7]): Active
- Activity (HCT-116 [8]): 0%
- Activity (MCF7 [9]): Active
- viability at 3 µM (MCF7 [10]): 76%
- Activity (MCF7 [11]): Active
- Activity (MCF7 [12]): Active
- viability at 0.1 µM (HCT-116 [13]): 73.3%
- Activity (Caco-2): Non-Toxic
- inhibition (Sus scrofa [14]): inactive
- IC50 (HCT-116 [15]): 0.11 µM
- IC50 (MCF7 [16]): 3.4 µM
- Activity (MCF7 [17]): Active
- Activity (HCT-116 [18]): 26.7%
- Activity (MCF7 [19]): 24%

Compound: Nc1ccc(C(=O)N/N=C2/c3cc(Br)cnc3-n3cccc32)cc1
- Activity (HCT-116 [20]): 0%
- Activity (MCF7 [21]): 0%
- viability at 2 µM (MCF7 [22]): 75.2%
- viability at 0.3 µM (HCT-116 [23]): 67%
- Activity (MCF7 [24]): Active
- Activity (MCF7 [25]): Active
- Activity (HCT-116 [26]): Active
- Activity (HCT-116 [27]): Active
- Activity (MCF7 [28]): 24.8%
- Activity (MCF7 [29]): Active
- Activity (MCF7 [30]): 0%
- Activity (HCT-116 [31]): Active
- Activity (HCT-116 [32]): 0%
- Activity (Caco-2): Non-Toxic
- inhibition (Sus scrofa [14]): inactive
- IC50 (HCT-116 [15]): 0.23 µM
- IC50 (MCF7 [16]): 1.8 µM
- Activity (HCT-116 [33]): 32.9%
- Activity (HCT-116 [34]): Active
- Activity (MCF7 [35]): Active

Compound: O=C(N/N=C1/c2cc(Br)cnc2-n2cccc21)c1ccccc1
- Activity (Caco-2): Non-Toxic
- IC50 (HCT-116 [15]): 1.74 µM
- IC50 (MCF7 [16]): 14.9 µM

Compound: O=C(N/N=C1/c2cc(Br)cnc2-n2cccc21)c1ccco1
- Activity (MCF7 [21]): 0%
- viability at 2 µM (MCF7 [22]): 78.2%
- Activity (MCF7 [24]): Active
- Activity (HCT-116 [36]): 31.5%
- Activity (MCF7 [25]): Active
- Activity (HCT-116 [37]): Active
- Activity (MCF7 [28]): 21.8%
- Activity (MCF7 [29]): Active
- Activity (MCF7 [30]): 0%
- viability at 0.2 µM (HCT-116 [38]): 68.4%
- Activity (HCT-116 [39]): 0%
- Activity (HCT-116 [40]): Active
- Activity (HCT-116 [41]): 0%
- Activity (Caco-2): Non-Toxic
- inhibition (Sus scrofa [14]): inactive
- IC50 (HCT-116 [15]): 0.17 µM
- IC50 (MCF7 [16]): 1.61 µM
- Activity (HCT-116 [42]): Active
- Activity (HCT-116 [43]): Active
- Activity (MCF7 [35]): Active

Compound: CC(=O)O[C@H]1C(=O)[C@@]2(C)[C@H]([C@H](OC(=O)c3ccccc3)[C@]3(O)C[C@H](OC(=O)[C@H](O)[C@@H](NC(=O)c4ccccc4)c4ccccc4)C(C)=C1C3(C)C)[C@]1(OC(C)=O)CO[C@@H]1C[C@@H]2O
- Activity (Sus scrofa [45]): Active

Compound: O=C(N/N=C1/c2cccnc2-n2cccc21)c1cccs1
- Activity (Caco-2): Non-Toxic
- IC50 (HCT-116 [15]): 0.46 µM
- IC50 (MCF7 [16]): 3.15 µM
